From patent US7550484B2, “Chemokine receptor binding heterocyclic compounds with enhanced efficacy” (Genzyme Corporation, priority 2003, dated 2009)
Several values for one entry are separate records, joined by “and”; a condition that tells them apart may be missing. Equal values may be shown once. Read-outs that look alike come from different tables or passages of the source.

Tests used:
[1] = system: granulocyte macrophage (CFU-GM), erythroid (BFU-E), and multipotential (CFU-GEMM) progenitor cells; details: for Absolute Number Progenitors Per ML Blood, BFU-E / Absolute Number Progenitors Per ML Blood, CFU-GEMM / Absolute Number Progenitors Per ML Blood, CFU-GM: 1 hour post administration; for Absolute Progenitors Per ML Blood, BFU-E / Absolute Progenitors Per ML Blood, CFU-GEMM / Absolute Progenitors Per ML Blood, CFU-GM: 5 mg/Kg single s.c.; for Absolute Progenitors Per ML Blood, BFU-E / Absolute Progenitors Per ML Blood, CFU-GEMM / Absolute Progenitors Per ML Blood, CFU-GM / Fold Change Compared to Time 0, progenitors BFU-E / Fold Change Compared to Time 0, progenitors CFU-GEMM / Fold Change Compared to Time 0, progenitors GM: methylcellulose culture
Description: Progenitors were stimulated to form colonies in vitro with the combination of 1 U/ml rhu Epo, 50 ng/ml rhu SLF, 5% Vol/Vol pokeweed mitogen mouse spleen cell conditioned medium (PWMSCM), and 0.1 mm hemin. Plates were scored 7 days after incubation.

[2] = system: white blood cells, CD34 positive progenitor cells, CFU-GM, BFU-E, CFU-GEMM progenitor cells
Description: Five healthy human volunteers having initial white blood cell counts of 4,500-7,500 cells/mm^3 were used in the study. […] Blood samples were obtained via catheter prior to the dose, and at various times up to 24 hours after dosing.
The blood samples were evaluated for total white blood cells, CD34 positive progenitor cells (via FACS analysis) as a percentage of total white blood cells, as well as the absolute numbers per mL and cycling status of granulocyte macrophage (CFU-GM), erythroid (BFU-E), and multipotential (CFU-GEMM) progenitor cells.
All progenitor cell results are based on the scoring of 3 culture plates per assay per point.
For the progenitor cell numbers and cycling status, the numbers of CFU-GM, BFU-E and CFU-GEMM in methylcellulose cultures by stimulation of the cells with 1 Unit (U)/ml recombinant human (rhu) erythropoietin, 100 U/ml rhu granulocyte-macrophage colony stimulating factor (GM-CSF), 100 U/ml rhu interleukin-3 (IL-3) and 50 ng/ml rhu steel factor (SLF=stem cell factor (SCF)). The CFU-GM were also evaluated in agar cultures stimulated with 100 U/ml rhu GM-CSF and 50 ng/ml rhu SLF. For both types of assays, colonies were scored after 14 day incubation in a humidified atmosphere with 5% CO2 and lowered (5%) O2 tension. Cell cycling status of progenitors was measured using a high specific activity tritiated thymidine kill technique as previously described (Broxmeyer, H. E., et al., Exp. Hematol. (1989) 17:455-459).

progenitor cells = details: AMD3100 5 mg/Kg s.c. + MIP-1α 5 μg I.V., 11 hours after rhu G-CSF or saline, 1 hour before blood
Description: Groups of mice were randomized to receive control diluent (saline) or G-CSF at a dose of 2.5 μg per mouse, twice a day, for two days via s.c. injection. […] One hour later, the mice were sacrificed and the number of progenitor cells per mL of blood were measured.

WBC counts = details: human, in vivo
bone marrow stem cells = details: administered within hours after coronary ligation, with or without rhG-CSF
Description: Adult rats are anesthetized and a thoracotomy is performed. The descending branch of the left coronary artery is ligated and not reperfused. […] Control rats are not treated with the reagents. The animals are monitored at one-week intervals by echocardiography and MRI. The experiment is terminated at 2, 6 to 12 weeks post-surgery. On the day of sacrifice, the hemodynamic functions are analyzed for left ventricle-end diastolic pressure, left ventricle-developed pressure and the rate of rise and fall of left ventricle pressure. The heart is then arrested in diastole and perfused via the abdominal aorta to flush residual blood from the vascular network of the myocardium. This is followed by perfusion of the heart with 10% formalin. Several slices are made through the fixed heart and these are embedded in paraffin and sections. The sections are stained and analyzed by light microscopy to determine the size of the infarct in the treated and control animals. Tissue sections from hearts taken at 2 weeks after surgery are stained with antibodies specific for immature, developing myocyte and blood vessel proteins and analyzed by confocal microscopy. The immunohistochemical analysis involves the identification of transcription factors and surface markers expressed in early stages of myocyte development.

[3] = system: WBC count and circulating CD34+ progenitor/stem cells; details: single dose of 80 μg/kg, cited from earlier work
[4] = T = 1 hours after injection, average of 5 donors

Description for white blood cell count: Eleven human patients having initial white blood cell counts of 4,000-6,500 cells/mm^3 were used in the study. […] Aliquots from this stock solution were added to 50-ml bags of 0.9% saline for intravenous injection in amounts to achieve the desired dosage levels (10 μg/kg-80 μg/kg).
The subjects described in this Example already contained an indwelling peripheral intravenous catheter. […] Blood samples were obtained prior to the dose, and at various times up to 24 hours after dose administration.
Three patients were administered dosages of 10 μg/kg (open circles); 3 patients were administered dosages of 20 μg/kg (solid circles); 3 patients were administered 40 μg/kg (open triangles); and 2 patients were administered 80 μg/kg (closed triangles).

c1cc(CN2CCCNCCNCCCNCC2)ccc1CN1CCCNCCNCCCNCC1 [AMD3100, 1,1′-[1,4-phenylenebis(methylene)]-bis-1,4,8,11-tetra-azacyclotetradecane]
Absolute Number Progenitors Per ML Blood, BFU-E ([1]; 1 mg/kg single s.c.): 62 Per ML Blood
Absolute Number Progenitors Per ML Blood, CFU-GEMM ([1]; 1 mg/kg single s.c.): 27.1 Per ML Blood
Absolute Number Progenitors Per ML Blood, CFU-GM ([1]; 1 mg/kg single s.c.): 424 Per ML Blood
Absolute Number Progenitors Per ML Blood, BFU-E ([1]; 2.5 mg/kg single s.c.): 98.9 Per ML Blood
Absolute Number Progenitors Per ML Blood, CFU-GEMM ([1]; 2.5 mg/kg single s.c.): 70.6 Per ML Blood
Absolute Number Progenitors Per ML Blood, CFU-GM ([1]; 2.5 mg/kg single s.c.): 687.6 Per ML Blood
Absolute Progenitors Per ML Blood, BFU-E ([1]; 15″): 134.5 Per ML Blood
Absolute Progenitors Per ML Blood, CFU-GEMM ([1]; 15″): 90.4 Per ML Blood
Absolute Progenitors Per ML Blood, CFU-GM ([1]; 15″): 791.6 Per ML Blood
Absolute Progenitors Per ML Blood, BFU-E ([1]; 30″): 209.3 Per ML Blood
Absolute Progenitors Per ML Blood, CFU-GEMM ([1]; 30″): 113.5 Per ML Blood
Absolute Progenitors Per ML Blood, CFU-GM ([1]; 30″): 1805.5 Per ML Blood
Absolute Progenitors Per ML Blood, BFU-E ([1]; 120″): 102.3 Per ML Blood
Absolute Progenitors Per ML Blood, CFU-GEMM ([1]; 120″): 47.6 Per ML Blood
Absolute Progenitors Per ML Blood, CFU-GM ([1]; 120″): 828.7 Per ML Blood
Absolute Number Progenitors Per ML Blood, BFU-E ([1]; 5 mg/kg single s.c.): 92.8 Per ML Blood
Absolute Number Progenitors Per ML Blood, CFU-GEMM ([1]; 5 mg/kg single s.c.): 69.5 Per ML Blood
Absolute Number Progenitors Per ML Blood, CFU-GM ([1]; 5 mg/kg single s.c.): 608.4 Per ML Blood
Absolute Number Progenitors Per ML Blood, BFU-E ([1]; 10 mg/kg single s.c.): 120.5 Per ML Blood
Absolute Number Progenitors Per ML Blood, CFU-GEMM ([1]; 10 mg/kg single s.c.): 79.8 Per ML Blood
Absolute Number Progenitors Per ML Blood, CFU-GM ([1]; 10 mg/kg single s.c.): 825.6 Per ML Blood
Fold Change Compared to Time 0, progenitors BFU-E ([1]; Time 2′): 2.07 fold
Fold Change Compared to Time 0, progenitors CFU-GEMM ([1]; Time 2′): 1.85 fold
Fold Change Compared to Time 0, progenitors GM ([1]; Time 2′): 2.86 fold
Fold Change Compared to Time 0, progenitors BFU-E ([1]; Time 15″): 2.72 fold
Fold Change Compared to Time 0, progenitors CFU-GEMM ([1]; Time 15″): 3.51 fold
Fold Change Compared to Time 0, progenitors GM ([1]; Time 15″): 2.73 fold
Fold Change Compared to Time 0, progenitors BFU-E ([1]; Time 30″): 4.24 fold
Fold Change Compared to Time 0, progenitors CFU-GEMM ([1]; Time 30″): 4.41 fold
Fold Change Compared to Time 0, progenitors GM ([1]; Time 30″): 6.23 fold
Time of maximal elevation of white blood cell count and CD34 positive progenitor cells post-administration ([2]; 80 μg/kg single s.c.): 6 h
Mobilization of white blood cells in individual volunteers ([2]; 80 μg/kg single s.c., 2 Hr, volunteers P1-P5): 12.4 ×10^3 WBC's and 21.4 ×10^3 WBC's and 13.5 ×10^3 WBC's
% CHG, CFU-GEMM, methylcellulose culture ([2]; T = 1, average of 5 donors): 131.8%
% CHG, CFU-GM, agar culture ([2]; T = 1, average of 5 donors): 180.8%
% CHG, CFU-GM, methylcellulose culture ([2]; T = 1, average of 5 donors): 376.7%
Fold change, BFU-E, methylcellulose culture, MEAN ([2]; T = 1, average of 5 donors): 1.99 fold
Fold change, CFU-GEMM, methylcellulose culture, MEAN ([2]; T = 1, average of 5 donors): 2.32 fold
Fold change, CFU-GM, agar culture, MEAN ([2]; T = 1, average of 5 donors): 2.81 fold
Fold change, CFU-GM, methylcellulose culture, MEAN ([2]; T = 1, average of 5 donors): 4.77 fold
% CHG, BFU-E, methylcellulose culture ([2]; T = 3, average of 5 donors): 221.3%
% CHG, CFU-GEMM, methylcellulose culture ([2]; T = 3, average of 5 donors): 332.5%
% CHG, CFU-GM, agar culture ([2]; T = 3, average of 5 donors): 754.1%
% CHG, CFU-GM, methylcellulose culture ([2]; T = 3, average of 5 donors): 1266.5%
% CHG, nucleated cellularity PBL-LD ([2]; T = 3, average of 5 donors): 185.6%
% CHG, nucleated cellularity PBL-US ([2]; T = 3, average of 5 donors): 180.2%
Fold change compared to TIME = 0, nucleated cellularity PBL-LD, MEAN ([2]; T = 3, average of 5 donors): 2.86 fold
Fold change compared to TIME = 0, nucleated cellularity PBL-US, MEAN ([2]; T = 3, average of 5 donors): 2.80 fold
Fold change, BFU-E, methylcellulose culture, MEAN ([2]; T = 3, average of 5 donors): 3.21 fold
Fold change, CFU-GEMM, methylcellulose culture, MEAN ([2]; T = 3, average of 5 donors): 4.33 fold
Fold change, CFU-GM, agar culture, MEAN ([2]; T = 3, average of 5 donors): 8.54 fold
Fold change, CFU-GM, methylcellulose culture, MEAN ([2]; T = 3, average of 5 donors): 13.66 fold
% CHG, BFU-E, methylcellulose culture ([2]; T = 6, average of 5 donors): 500.5%
% CHG, CFU-GEMM, methylcellulose culture ([2]; T = 6, average of 5 donors): 907.2%
% CHG, CFU-GM, agar culture ([2]; T = 6, average of 5 donors): 1692.8%
% CHG, CFU-GM, methylcellulose culture ([2]; T = 6, average of 5 donors): 2070.6%
% CHG, nucleated cellularity PBL-LD ([2]; T = 6, average of 5 donors): 266.3%
% CHG, nucleated cellularity PBL-US ([2]; T = 6, average of 5 donors): 225.8%
Fold change compared to TIME = 0, nucleated cellularity PBL-LD, MEAN ([2]; T = 6, average of 5 donors): 3.66 fold
Fold change compared to TIME = 0, nucleated cellularity PBL-US, MEAN ([2]; T = 6, average of 5 donors): 3.26 fold
Fold change, BFU-E, methylcellulose culture, MEAN ([2]; T = 6, average of 5 donors): 6.01 fold
Fold change, CFU-GEMM, methylcellulose culture, MEAN ([2]; T = 6, average of 5 donors): 10.07 fold
Fold change, CFU-GM, agar culture, MEAN ([2]; T = 6, average of 5 donors): 17.93 fold
Fold change, CFU-GM, methylcellulose culture, MEAN ([2]; T = 6, average of 5 donors): 21.71 fold
% CHG, BFU-E, methylcellulose culture ([2]; T = 9, average of 5 donors): 334.4%
% CHG, CFU-GEMM, methylcellulose culture ([2]; T = 9, average of 5 donors): 425.4%
% CHG, CFU-GM, methylcellulose culture ([2]; T = 9, average of 5 donors): 947.3%
% CHG, nucleated cellularity PBL-LD ([2]; T = 9, average of 5 donors): 264.3%
% CHG, nucleated cellularity PBL-US ([2]; T = 9, average of 5 donors): 209.4%
Fold change compared to TIME = 0, nucleated cellularity PBL-LD, MEAN ([2]; T = 9, average of 5 donors): 3.64 fold
Fold change compared to TIME = 0, nucleated cellularity PBL-US, MEAN ([2]; T = 9, average of 5 donors): 3.09 fold
Fold change, BFU-E, methylcellulose culture, MEAN ([2]; T = 9, average of 5 donors): 4.34 fold
Fold change, CFU-GEMM, methylcellulose culture, MEAN ([2]; T = 9, average of 5 donors): 5.25 fold
Fold change, CFU-GM, methylcellulose culture, MEAN ([2]; T = 9, average of 5 donors): 10.47 fold
% CHG, CFU-GM, agar culture ([2]; T = 9, average of donors): 924.9%
Fold change, CFU-GM, agar culture, MEAN ([2]; T = 9, average of donors): 10.25 fold
% CHG, BFU-E, methylcellulose culture ([2]; T = 24, average of 5 donors): 26.3%
% CHG, CFU-GEMM, methylcellulose culture ([2]; T = 24, average of 5 donors): 53.2%
% CHG, CFU-GM, methylcellulose culture ([2]; T = 24, average of 5 donors): 55.5%
% CHG, nucleated cellularity PBL-US ([2]; T = 24, average of 5 donors): 7.0%
Fold change compared to TIME = 0, nucleated cellularity PBL-LD, MEAN ([2]; T = 24, average of 5 donors): 1.05 fold
Fold change compared to TIME = 0, nucleated cellularity PBL-US, MEAN ([2]; T = 24, average of 5 donors): 1.07 fold
Fold change, BFU-E, methylcellulose culture, MEAN ([2]; T = 24, average of 5 donors): 1.26 fold
Fold change, CFU-GEMM, methylcellulose culture, MEAN ([2]; T = 24, average of 5 donors): 1.53 fold
Fold change, CFU-GM, methylcellulose culture, MEAN ([2]; T = 24, average of 5 donors): 1.56 fold
% CHG, CFU-GM, agar culture ([2]; T = 24, average of donors): 108.3%
Fold change, CFU-GM, agar culture, MEAN ([2]; T = 24, average of donors): 2.08 fold
% CHG, nucleated cellularity PBL-LD [2, 4]: 86.2%
% CHG, nucleated cellularity PBL-US [2, 4]: 68.6%
Fold change compared to TIME = 0, nucleated cellularity PBL-LD, MEAN [2, 4]: 1.86 fold
Fold change compared to TIME = 0, nucleated cellularity PBL-US, MEAN [2, 4]: 1.69 fold
Time of maximal fold increases in circulating levels of progenitor cells after injection ([2]; all five donors): 6 h
Mobilization of progenitor cells in combination with mu MIP-1α (progenitor cells): additive to greater than additive
Change of white blood cell count (white blood cell count; all patients, 10-80 μg/kg intravenous, succeeding 5-10 hours after administration): marked increase in white blood cell count
Peak white blood cell count (white blood cell count; one patient, 80 μg/kg intravenous, from 6,000 cells/mm^3): 19,000 cells/mm^3
White blood cell count after increase (white blood cell count; patient showing the least response, 20 μg/kg intravenous, from about 6,300 cells/mm^3): about 9,000 cells/mm^3
Time until WBC counts returned to baseline after discontinuation of the infusion (WBC counts): 7 days
Expected effect after induction of cardiac ischemia (bone marrow stem cells): mobilizes bone marrow stem cells rapidly
Peak increase in circulating CD34+ progenitor/stem cells ([3]; 6 hour time point): 6 fold
WBC count [3]: 17,000 /μl
